In brackets after ≈: the same amount, converted by molar mass. No end group written: not given here.
Legend:
[1] = Solubility of peptides in buffer
[2] = test system: endogenous Ras in Capan-1 cell lysate; assay: Peptide pulldown of Ras in Capan-1 cell lysate; assay type: binding, human; conditions: for pulldown of endogenous Ras by biotinylated peptide: 5 μM peptide, streptavidin beads, western blot
[3] = not told
[4] = Circular dichroism spectra and thermal melting at 222 nm; assay type: physicochemical; conditions: for Tm: CD at 222 nm; for effect of mutation on peptide secondary structure by CD: pH 12, compared to 225-3
GppNHp-bound Rapla = GppNHp-bound Rapla (Homo sapiens, UniProt P62834); conditions: Rapla versus Ras
[5] = molecular target: KRas (G12V) loaded with mant-GppNHp (Homo sapiens, UniProt P01116, G12V); assay: Mant nucleotide dissociation assay; assay type: biochemical; conditions: 1 μM Raf or peptide, 500 nM Ras, excess GppNHp
[6] = molecular target: T1, endogenous Ras / Raf RBD interaction (Homo sapiens, UniProt P01116, G12V); assay: GST-Raf RBD pulldown of Ras in Capan-1 cell lysate, competition by peptide; assay type: biochemical; conditions: lysate pre-incubated with 10 μM peptide
T1 construct: endogenous in cells; host or cells: Capan-1 lysate (Ras); the GST-Raf RBD was made in E. coli BL21 Rosetta I pLysS from pGEX-5X

KRas (G12V).GppNHp = KRas (G12V).GppNHp (Homo sapiens, UniProt P01116, G12V); assay: Fluorescence polarization binding of FITC-labeled 225-3 and its alanine mutants to KRas; conditions: alanine mutants of 225-3
[7] = test system: H358 lung adenocarcinoma cells; assay: Live-cell confocal microscopy with fluorescein-labeled peptides; assay type: cell-based, human; conditions: 5 uM, compared to SEQ ID NO: 10
Protocol: Human tumor cell lines (e.g., H358 or HPAF-II) were seeded into LabTek II culture chambers in DMEM media supplemented with 10% fetal calf serum and grown overnight at 37° C. under standard cell culture conditions. The following day, media was replaced with media containing 5 uM of fluorescein-labeled peptide and incubated for 4 hours at 37° C. The cells were washed, stained with NucBlue Hoechst 33342 and Dextran 10k Alexa647, then imaged on a confocal microscope. The fluorescent peptides were visualized with a 488 nm laser and is shown in green in FIGS. 34A-B.

KRas = KRas (Homo sapiens, UniProt P01116, G12V); assay: Yeast surface display binding to KRas (FACS)
Myc/Max heterodimer = Myc/Max heterodimer (Homo sapiens, UniProt P01106+P61244); assay: Yeast surface display binding to Myc/Max; conditions: FIG. 38C
Description: (§1) Experimental for yeast display assays were similar to those used for FIG. 9. MY01 peptide of SEQ ID NO: 43 corresponds to the indicated high-binding population in FIG. 38C. Purification of the RalA protein was similar to the methods used for KRas constructs as discussed previously.
Purification of the Myc/Max proteins was done as follows. A bicistronic pET vector containing His6-yBBr-TEV-Myc (residues 353-434) and untagged Max (residues 22-102) was transformed into chemically competent BL21 cells. The cells were grown to OD600=0.7, induced with 0.25 mM IPTG for 5 hours at 30° C., then harvested and resuspended in lysis buffer (20 mM HEPES pH 7.5, 500 mM KCl, 5% glycerol) prior to snap-freezing in liquid nitrogen. For purification, the pellet was thawed, raised to 40 ml in the same buffer, and mixed with a Roche Complete EDTA-free protease inhibitor tablet. The cells were lysed with a tip sonicator (VirSonic, 6 cycles of 10 s on, 15 s off at 6.5 power level), then pelleted at 30,000×g for 30 minutes and filtered through a 0.45 uM Tuffryn membrane (Pall Corporation). The clarified lysate was added to 2 ml of HisPur Ni-NTA resin (Thermo Pierce) that had been equilibrated with the same buffer, and drained by gravity. The column was washed with 20 ml of buffer, then protein was eluted with buffer containing 150 mM imidazole and some protease inhibitor. […]

RalA = molecular target: T2, RalA (Homo sapiens, UniProt P11233); assay: Yeast surface display binding to RalA; conditions: FIG. 38A-B
T2 sequence (P11233 1-206): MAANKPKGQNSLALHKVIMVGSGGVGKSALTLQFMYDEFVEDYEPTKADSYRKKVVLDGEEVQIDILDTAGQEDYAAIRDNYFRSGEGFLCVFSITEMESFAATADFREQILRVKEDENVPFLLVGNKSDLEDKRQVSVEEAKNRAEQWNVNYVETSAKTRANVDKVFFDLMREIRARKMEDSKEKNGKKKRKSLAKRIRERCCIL
Description: as §1

Ras = Ras (Homo sapiens, UniProt P01116, G12V); assay: Ras binding of disulfide-protected peptide on addition of glutathione; conditions: Cys protected with 2,2′-Dipyridyldisulfide; 5 mM reduced glutathione
Description: This cysteine is uncaged in the presence of […] glutathione levels to form the disulfide-bonded species, which is a better Ras binder. […] The experimentals are the similar to those described for FIG. 19.

CC[C@H](C)[C@H](NC(=O)[C@H](CO)NC(=O)[C@H](C)NC(=O)[C@H](CC(=O)O)NC(=O)[C@H](CC(=O)O)NC(=O)CNC(=O)[C@@H]1CCCN1C(=O)[C@H](Cc1ccc(O)cc1)NC(=O)[C@H](CCCNC(=N)N)NC(=O)[C@@H]1CCCN1C(=O)[C@H](CCCNC(=N)N)NC(=O)[C@H](CCCNC(=N)N)NC(=O)[C@@H]1CCCN1C(=O)CNC(=O)CNC(=O)[C@H](CS)NC(=O)CN)C(=O)N[C@@H](CCC(=O)O)C(=O)N[C@@H](CC(=O)O)C(=O)N[C@@H](CC(C)C)C(=O)N[C@@H](Cc1c[nH]cn1)C(=O)N[C@@H](CCC(=O)O)C(=O)N[C@@H](Cc1ccc(O)cc1)C(=O)N[C@@H](Cc1c[nH]c2ccccc12)C(=O)N[C@@H](C)C(=O)N[C@@H](CCCNC(=N)N)C(=O)N[C@@H](CC(C)C)C(=O)N[C@@H](Cc1c[nH]c2ccccc12)C(=O)N[C@@H](CC(N)=O)C(=O)N[C@@H](Cc1ccc(O)cc1)C(=O)N[C@@H](CC(C)C)C(=O)N[C@@H](Cc1ccc(O)cc1)C(=O)N[C@@H](C)C(=O)N[C@H](C(=O)N[C@@H](C)C(=O)O)C(C)C [Peptide 225-1]
solubility [1]: 100 to 200 µM (≈ 407 to 814 µg/mL)

CC[C@H](C)[C@H](NC(=O)[C@H](CO)NC(=O)[C@H](C)NC(=O)[C@H](CC(=O)O)NC(=O)[C@H](CC(=O)O)NC(=O)CNC(=O)[C@@H]1CCCN1C(=O)[C@H](Cc1ccc(O)cc1)NC(=O)[C@H](CCCNC(=N)N)NC(=O)[C@@H]1CCCN1C(=O)[C@H](CCCNC(=N)N)NC(=O)[C@H](CCCNC(=N)N)NC(=O)[C@@H]1CCCN1C(=O)[C@H](CCCNC(=N)N)NC(=O)[C@H](CCCNC(=N)N)NC(=O)[C@@H]1CCCN1C(=O)CNC(=O)CNC(=O)[C@H](CS)NC(=O)CN)C(=O)N[C@@H](CCC(=O)O)C(=O)N[C@@H](CC(=O)O)C(=O)N[C@@H](CC(C)C)C(=O)N[C@@H](Cc1c[nH]cn1)C(=O)N[C@@H](CCC(=O)O)C(=O)N[C@@H](Cc1ccc(O)cc1)C(=O)N[C@@H](Cc1c[nH]c2ccccc12)C(=O)N[C@@H](C)C(=O)N[C@@H](CCCNC(=N)N)C(=O)N[C@@H](CC(C)C)C(=O)N[C@@H](Cc1c[nH]c2ccccc12)C(=O)N[C@@H](CC(N)=O)C(=O)N[C@@H](Cc1ccc(O)cc1)C(=O)N[C@@H](CC(C)C)C(=O)N[C@@H](Cc1ccc(O)cc1)C(=O)N[C@@H](C)C(=O)N[C@H](C(=O)N[C@@H](C)C(=O)O)C(C)C [Peptide 225-3]
pulldown of endogenous Ras by biotinylated peptide [2]: pulled down Ras | pulldown of endogenous Ras by biotinylated peptide after Raf RBD pre-incubation ([2]; lysate pre-incubated with Raf RBD (3 μM)): not when the lysate was pre-incubated with the Raf RBD | cell permeability [3]: somewhat cell permeable | Tm ([4]; pH 4.5): 57 °C | Tm ([4]; pH 12): 46.2 °C | binding weaker than to Ras (GppNHp-bound Rapla): more than 100 fold

GCGGPRRPRRPRYPGDDASIEDLHEYAARLWNYLYAVA [Peptide W21A]
effect of mutation on peptide secondary structure by CD [4]: significant destabilizing effect

GCGGPRRPRRPRYPGDDASIEDLHEYWARLANYLYAVA [Peptide W25A]
effect of mutation on peptide secondary structure by CD [4]: significant destabilizing effect

GCGGPRRPRRPRYPGDDASIEDLHEYWARLWAYLYAVA [Peptide N26A]
pulldown of endogenous Ras by biotinylated peptide [2]: not pulled down | effect on rate of mantGppNHp dissociation from KRas [5]: did not decrease the rate of dissociation | effect on pulldown of Ras by GST-tagged Raf RBD [6]: did not disrupt this pulldown | effect of mutation on peptide secondary structure by CD [4]: unchanged compared to 225-3 | reduction in measured binding affinity relative to 225-3 (KRas (G12V).GppNHp): at least 100 fold

GCGGPRRPRYPGDAASIAALHAYWARLWNYLYRVA [SEQ ID NO: 28]
solubility / aggregates in microscopy [7]: increased solubility

GCGGPRRPRYPGDDACEEDLHEYWARLWNYLYAVA [225-1 S13C/I14E]
binding of yeast-displayed peptide to KRas (KRas; 5 nM KRas, mutant pre-incubated with free 225-1): binds Ras with increased affinity

GCGGPRRPRYPGDDASIEDLHEYWARLWNYLYRVA [225-1 A30R]
selectivity KRas(GTP) vs KRas(GDP) (KRas; 500 nM each of Ras.GTP and Ras.GDP, two-colour FACS): more selective for KRas (GTP) than 225-1

GPRRPRCPGDDASIRDLLKYWWRLRLYLLAVA [SEQ ID NO: 43]
binding to Myc/Max (Myc/Max heterodimer): binds

GPRRPRCPGDDASIRDLVMYWYRLYFYLEAVA [SEQ ID NO: 45]
binding to KRas (KRas; yeast surface display, FIG. 38): binds both RalA and KRas | binding to RalA (RalA): binds both RalA and KRas

GPRRPRCPGDDASISDLLLYWLRLDRYLWAVA [SEQ ID NO: 44]
binding to RalA (RalA): binds

I14A: single alanine point mutant I14A of the 225-3 peptide (GCGGPRRPRRPRYPGDDASAEDLHEYWARLWNYLYAVA) [Peptide I14A]
effect of mutation on peptide secondary structure by CD [4]: significant destabilizing effect

PRRPRCPGHAASIAALHAYWARLWNYLYRVR [Peptide 291-Q3]
change in Ras binding upon addition of reduced glutathione (Ras): increase in Ras binding

Source: patent US11377476B2, “Ras inhibitory peptides and uses thereof” (President and Fellows of Harvard College, priority 2014, dated 2022)
